# According to ChEMBL document CHEMBL4385643, “Design of a brain-penetrant CDK4/6 inhibitor for glioblastoma” (Bioorg Med Chem Lett, 2019):
# Experiments:
# TAK1/TAB1 (Homo sapiens) = TAK1/TAB1 (Homo sapiens) (UniProt Q15750+O43318); test: Inhibition of tracer 222 binding to recombinant human His-tagged TAK1-TAB1 catalytic domain (437 to 504 residues) expressed in baculovirus expression system at 0.1 uM measured after 60 mins by Lanthascreen assay relative to control
# [1] = molecular target: CDK8/Cyclin C (Homo sapiens) (UniProt P49336+P24863); test: Inhibition of tracer 236 binding to recombinant full length human His-tagged CDK8/cyclin C expressed in baculovirus expression system at 0.1 uM measured after 60 mins by Lanthascreen assay
# [2] = molecular target: Insulin-like growth factor 1 receptor (Homo sapiens) (UniProt P08069); test: Inhibition of recombinant human His-tagged IGF1R catalytic domain (960 to 1397 residues) expressed in baculovirus expression system at 0.1 uM using tyrosine-1 peptide as substrate incubated for 60 mins by Z'-LYTE assay relative to control
# [3] = molecular target: Ribosomal protein S6 kinase alpha-2 (Homo sapiens) (UniProt Q15349); test: Inhibition of recombinant full length human GST-tagged RSK3 expressed in insect expression system at 0.1 uM using serine/threonine-6 peptide as substrate incubated for 60 mins by Z'-LYTE assay relative to control
# [4] = molecular target: Serine/threonine-protein kinase DCLK2 (Homo sapiens) (UniProt Q8N568); test: Inhibition of recombinant full length human GST-tagged DCAMKL2 expressed in baculovirus expression system at 0.1 uM using serine/threonine-17 peptide as substrate incubated for 60 mins by Z'-LYTE assay relative to control
# [5] = molecular target: Testis-specific serine/threonine-protein kinase 1 (Homo sapiens) (UniProt Q9BXA7); test: Inhibition of recombinant full length human His-tagged TSSK1 expressed in baculovirus expression system at 0.1 uM using serine/threonine-4 peptide as substrate incubated for 60 mins by Z'-LYTE assay relative to control
# [6] = molecular target: STE20-like serine/threonine-protein kinase (Homo sapiens) (UniProt Q9H2G2); test: Inhibition of tracer 236 binding to recombinant full length human GST-tagged SLK expressed in baculovirus expression system at 0.1 uM measured after 60 mins by Lanthascreen assay relative to control
# [7] = molecular target: Angiopoietin-1 receptor (Homo sapiens) (UniProt Q02763); test: Inhibition of recombinant human GST-tagged TIE2 (817 to 1101 residues) expressed in baculovirus expression system at 0.1 uM using tyrosine-5 peptide as substrate incubated for 60 mins by Z'-LYTE assay relative to control
# [8] = molecular target: Activated CDC42 kinase 1 (Homo sapiens) (UniProt Q07912); test: Inhibition of tracer 236 binding to recombinant human GST-tagged TNK2 catalytic domain (110 to 476 residues) expressed in baculovirus expression system at 0.1 uM measured after 60 mins by Lanthascreen assay
# [9] = molecular target: Tyrosine-protein kinase receptor UFO (Homo sapiens) (UniProt P30530); test: Inhibition of recombinant full length human GST-tagged AXL expressed in insect expression system at 0.1 uM using tyrosine-6 peptide as substrate incubated for 60 mins by Z'-LYTE assay relative to control
# [10] = molecular target: Dual specificity mitogen-activated protein kinase kinase 1 (Homo sapiens) (UniProt Q02750); test: Inhibition of recombinant full length human His-tagged MEK1 expressed in baculovirus expression system at 0.1 uM using serine/threonine-3 peptide as substrate incubated for 60 mins by Z'-LYTE assay relative to control
# [11] = molecular target: Myosin light chain kinase (Homo sapiens) (UniProt Q32MK0); test: Inhibition of tracer 236 binding to recombinant full length human GST-tagged MYLK3 expressed in baculovirus expression system at 0.1 uM measured after 60 mins by Lanthascreen assay relative to control
# [12] = molecular target: Muscle, skeletal receptor tyrosine-protein kinase (Homo sapiens) (UniProt O15146); test: Inhibition of recombinant human GST-tagged MUSK (519 to 869 residues) expressed in baculovirus expression system at 0.1 uM using tyrosine-4 peptide as substrate incubated for 60 mins by Z'-LYTE assay relative to control
# [13] = molecular target: Vascular endothelial growth factor receptor 1 (Homo sapiens) (UniProt P17948); test: Inhibition of recombinant human GST-tagged FLT1 catalytic domain (781 to 1338 residues) expressed in baculovirus expression system at 0.1 uM using tyrosine-4 peptide as substrate incubated for 60 mins by Z'-LYTE assay relative to control
# [14] = molecular target: Mitogen-activated protein kinase 1 (Homo sapiens) (UniProt P28482); test: Inhibition of recombinant full length human GST-tagged ERK2 expressed in Escherichia coli expression system at 0.1 uM using serine/threonine-3 peptide as substrate incubated for 60 mins by Z'-LYTE assay relative to control
# [15] = molecular target: Receptor-type tyrosine-protein kinase FLT3 (Homo sapiens) (UniProt P36888); test: Inhibition of recombinant human His-tagged FLT3 catalytic domain (564 to 958 residues) expressed in baculovirus expression system at 0.1 uM using tyrosine-2 peptide as substrate incubated for 60 mins by Z'-LYTE assay relative to control
# [16] = molecular target: Inhibitor of nuclear factor kappa-B kinase subunit epsilon (Homo sapiens) (UniProt Q14164); test: Inhibition of recombinant full length human GST-tagged IKKepsilon expressed in baculovirus expression system at 0.1 uM using serine/threonine-11 peptide as substrate incubated for 60 mins by Z'-LYTE assay relative to control
# [17] = molecular target: Epithelial discoidin domain-containing receptor 1 (Homo sapiens) (UniProt Q08345); test: Inhibition of tracer 178 binding to recombinant human GST-tagged DDR1 catalytic domain (440 to 876 residues) expressed in baculovirus expression system at 0.1 uM measured after 60 mins by Lanthascreen assay relative to control
# [18] = molecular target: RAC-alpha serine/threonine-protein kinase (Homo sapiens) (UniProt P31749); test: Inhibition of recombinant full length human His-tagged AKT1 expressed in baculovirus expression system at 0.1 uM using serine/threonine-06 peptide as substrate incubated for 60 mins by Z'-LYTE assay relative to control
# [19] = molecular target: Dual specificity protein kinase CLK4 (Homo sapiens) (UniProt Q9HAZ1); test: Inhibition of tracer 236 binding to recombinant full length human GST-tagged CLK4 expressed in baculovirus expression system at 0.1 uM measured after 60 mins by Lanthascreen assay relative to control
# [20] = molecular target: G protein-coupled receptor kinase 5 (Homo sapiens) (UniProt P34947); test: Inhibition of recombinant full length human GST-tagged GRK5 expressed in baculovirus expression system at 0.1 uM using serine/threonine-16 peptide as substrate incubated for 60 mins by Z'-LYTE assay relative to control
# [21] = molecular target: Tyrosine-protein kinase ITK/TSK (Homo sapiens) (UniProt Q08881); test: Inhibition of recombinant full length human GST-tagged ITK expressed in baculovirus expression system at 0.1 uM using tyrosine-1 peptide as substrate incubated for 60 mins by Z'-LYTE assay relative to control
# [22] = molecular target: Serine/threonine-protein kinase Nek4 (Homo sapiens) (UniProt P51957); test: Inhibition of recombinant full length human GST-tagged NEK4 expressed in baculovirus expression system at 0.1 uM using serine/threonine-17 peptide as substrate incubated for 60 mins by Z'-LYTE assay relative to control
# Sequence of Ribosomal protein S6 kinase alpha-2 (Homo sapiens) (Q15349 whole entry): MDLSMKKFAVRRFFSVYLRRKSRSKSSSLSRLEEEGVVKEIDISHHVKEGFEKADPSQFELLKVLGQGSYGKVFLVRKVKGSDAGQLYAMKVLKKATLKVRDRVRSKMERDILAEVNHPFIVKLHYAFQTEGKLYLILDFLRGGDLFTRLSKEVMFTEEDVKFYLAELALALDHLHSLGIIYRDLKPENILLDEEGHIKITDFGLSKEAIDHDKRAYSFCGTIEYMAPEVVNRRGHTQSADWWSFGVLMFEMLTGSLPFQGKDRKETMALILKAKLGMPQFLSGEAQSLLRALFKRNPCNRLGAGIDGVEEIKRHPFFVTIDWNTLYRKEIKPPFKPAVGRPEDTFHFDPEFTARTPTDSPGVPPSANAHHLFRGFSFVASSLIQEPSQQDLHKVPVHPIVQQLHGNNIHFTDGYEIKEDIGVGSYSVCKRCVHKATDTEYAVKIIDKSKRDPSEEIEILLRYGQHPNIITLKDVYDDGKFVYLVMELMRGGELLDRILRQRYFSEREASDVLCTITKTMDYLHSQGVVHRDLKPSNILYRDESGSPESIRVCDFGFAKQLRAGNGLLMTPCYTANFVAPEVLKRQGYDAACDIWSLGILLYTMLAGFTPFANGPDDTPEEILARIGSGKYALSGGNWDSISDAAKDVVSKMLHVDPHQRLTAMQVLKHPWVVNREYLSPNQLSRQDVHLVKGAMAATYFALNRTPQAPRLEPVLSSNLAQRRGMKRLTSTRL
# Sequence of Inhibitor of nuclear factor kappa-B kinase subunit epsilon (Homo sapiens) (Q14164 whole entry, the tested form may be a part): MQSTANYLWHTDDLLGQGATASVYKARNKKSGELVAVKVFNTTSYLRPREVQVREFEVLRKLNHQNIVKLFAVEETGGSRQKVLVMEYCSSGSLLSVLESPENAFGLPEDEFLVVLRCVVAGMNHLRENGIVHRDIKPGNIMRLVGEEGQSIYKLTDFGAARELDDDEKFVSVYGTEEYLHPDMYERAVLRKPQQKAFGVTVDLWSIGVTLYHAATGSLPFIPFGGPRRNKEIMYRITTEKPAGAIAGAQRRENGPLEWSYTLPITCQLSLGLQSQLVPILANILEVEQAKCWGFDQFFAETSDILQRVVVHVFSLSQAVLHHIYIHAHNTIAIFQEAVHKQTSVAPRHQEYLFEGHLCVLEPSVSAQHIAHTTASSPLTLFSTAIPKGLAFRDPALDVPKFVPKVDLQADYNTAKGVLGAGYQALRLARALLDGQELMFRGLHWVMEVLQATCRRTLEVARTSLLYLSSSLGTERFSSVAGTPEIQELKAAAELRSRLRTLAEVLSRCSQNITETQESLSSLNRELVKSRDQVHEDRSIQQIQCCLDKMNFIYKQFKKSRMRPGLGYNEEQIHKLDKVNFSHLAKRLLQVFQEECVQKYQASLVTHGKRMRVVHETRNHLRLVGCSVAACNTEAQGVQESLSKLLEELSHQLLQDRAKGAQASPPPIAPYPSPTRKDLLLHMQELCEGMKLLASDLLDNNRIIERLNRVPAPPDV
# Sequence of Activated CDC42 kinase 1 (Homo sapiens) (Q07912 whole entry, looked up, the tested form may be a part): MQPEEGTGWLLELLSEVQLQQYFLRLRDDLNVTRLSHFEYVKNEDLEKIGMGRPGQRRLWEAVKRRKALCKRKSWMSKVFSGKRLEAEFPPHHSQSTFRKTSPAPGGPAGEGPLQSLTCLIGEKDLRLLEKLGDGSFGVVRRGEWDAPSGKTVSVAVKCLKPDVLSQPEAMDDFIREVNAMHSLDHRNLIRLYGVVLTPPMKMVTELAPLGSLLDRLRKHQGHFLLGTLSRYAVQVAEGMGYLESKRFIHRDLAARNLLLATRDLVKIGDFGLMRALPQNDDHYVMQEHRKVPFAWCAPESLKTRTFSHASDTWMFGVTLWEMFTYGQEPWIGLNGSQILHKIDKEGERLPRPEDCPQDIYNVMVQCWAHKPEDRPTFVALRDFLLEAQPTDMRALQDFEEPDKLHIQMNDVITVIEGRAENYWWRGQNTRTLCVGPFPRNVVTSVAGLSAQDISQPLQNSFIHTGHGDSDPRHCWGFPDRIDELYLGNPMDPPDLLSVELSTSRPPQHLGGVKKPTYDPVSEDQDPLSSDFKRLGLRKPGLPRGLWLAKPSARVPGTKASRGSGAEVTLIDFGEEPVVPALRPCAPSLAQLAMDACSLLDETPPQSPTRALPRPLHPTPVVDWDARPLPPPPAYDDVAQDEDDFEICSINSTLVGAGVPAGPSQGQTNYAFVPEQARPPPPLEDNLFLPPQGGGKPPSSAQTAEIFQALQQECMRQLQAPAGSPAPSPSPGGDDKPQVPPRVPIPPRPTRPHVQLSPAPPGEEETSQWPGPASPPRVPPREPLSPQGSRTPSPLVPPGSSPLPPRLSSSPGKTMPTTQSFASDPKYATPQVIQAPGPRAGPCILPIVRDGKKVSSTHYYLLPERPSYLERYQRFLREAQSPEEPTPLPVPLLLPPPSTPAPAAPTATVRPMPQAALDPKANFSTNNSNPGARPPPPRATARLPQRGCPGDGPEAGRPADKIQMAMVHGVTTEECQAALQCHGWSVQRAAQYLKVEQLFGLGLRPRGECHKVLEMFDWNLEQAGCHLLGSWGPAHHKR
# Sequence of Receptor-type tyrosine-protein kinase FLT3 (Homo sapiens) (P36888 whole entry, the tested form may be a part): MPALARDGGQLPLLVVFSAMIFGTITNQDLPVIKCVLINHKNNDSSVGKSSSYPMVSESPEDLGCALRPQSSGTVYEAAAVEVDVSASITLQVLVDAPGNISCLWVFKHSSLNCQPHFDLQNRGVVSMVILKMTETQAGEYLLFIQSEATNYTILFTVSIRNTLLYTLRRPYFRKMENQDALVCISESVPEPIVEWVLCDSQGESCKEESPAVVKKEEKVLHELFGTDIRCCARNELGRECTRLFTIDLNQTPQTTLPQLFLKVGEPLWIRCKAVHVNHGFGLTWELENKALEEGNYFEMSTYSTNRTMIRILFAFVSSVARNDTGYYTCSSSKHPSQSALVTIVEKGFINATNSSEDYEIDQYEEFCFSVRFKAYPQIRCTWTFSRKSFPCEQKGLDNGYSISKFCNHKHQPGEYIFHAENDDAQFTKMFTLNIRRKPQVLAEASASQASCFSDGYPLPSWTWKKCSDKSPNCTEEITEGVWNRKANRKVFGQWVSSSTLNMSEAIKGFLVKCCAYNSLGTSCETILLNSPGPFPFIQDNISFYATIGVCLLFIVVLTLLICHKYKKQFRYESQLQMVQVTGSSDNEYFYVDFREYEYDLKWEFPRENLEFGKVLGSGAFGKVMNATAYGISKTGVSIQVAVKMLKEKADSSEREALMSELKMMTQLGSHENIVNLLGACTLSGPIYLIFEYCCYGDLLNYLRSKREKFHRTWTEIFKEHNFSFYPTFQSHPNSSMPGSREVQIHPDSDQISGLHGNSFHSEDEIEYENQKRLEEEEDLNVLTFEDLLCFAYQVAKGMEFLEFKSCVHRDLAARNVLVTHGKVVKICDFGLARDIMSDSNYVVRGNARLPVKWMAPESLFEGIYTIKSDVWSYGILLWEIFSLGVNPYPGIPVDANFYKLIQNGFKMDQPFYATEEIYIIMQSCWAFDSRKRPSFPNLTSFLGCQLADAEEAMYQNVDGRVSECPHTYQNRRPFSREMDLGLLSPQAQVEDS
# Sequence of Insulin-like growth factor 1 receptor (Homo sapiens) (P08069 31-736 limits assumed): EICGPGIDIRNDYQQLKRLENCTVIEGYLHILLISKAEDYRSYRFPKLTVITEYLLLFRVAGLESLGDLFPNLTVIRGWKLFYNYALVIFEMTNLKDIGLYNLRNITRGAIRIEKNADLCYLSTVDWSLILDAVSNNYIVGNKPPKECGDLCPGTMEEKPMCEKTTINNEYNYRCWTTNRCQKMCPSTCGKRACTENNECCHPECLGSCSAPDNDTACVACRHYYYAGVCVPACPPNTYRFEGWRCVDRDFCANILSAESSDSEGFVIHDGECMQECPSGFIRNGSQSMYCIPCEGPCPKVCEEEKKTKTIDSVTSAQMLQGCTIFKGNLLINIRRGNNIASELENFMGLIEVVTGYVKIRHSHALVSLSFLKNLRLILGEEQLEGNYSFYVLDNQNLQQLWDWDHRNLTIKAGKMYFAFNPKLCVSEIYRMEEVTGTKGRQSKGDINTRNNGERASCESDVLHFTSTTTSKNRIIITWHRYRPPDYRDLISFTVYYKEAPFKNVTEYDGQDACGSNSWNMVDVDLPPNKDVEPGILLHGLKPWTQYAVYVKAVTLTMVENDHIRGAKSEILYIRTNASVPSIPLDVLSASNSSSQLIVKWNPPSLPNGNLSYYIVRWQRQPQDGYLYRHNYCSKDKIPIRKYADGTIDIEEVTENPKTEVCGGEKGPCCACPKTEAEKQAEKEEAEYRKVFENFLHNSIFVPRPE
# Sequence of Insulin-like growth factor 1 receptor (Homo sapiens) (P08069 741-1367 limits assumed): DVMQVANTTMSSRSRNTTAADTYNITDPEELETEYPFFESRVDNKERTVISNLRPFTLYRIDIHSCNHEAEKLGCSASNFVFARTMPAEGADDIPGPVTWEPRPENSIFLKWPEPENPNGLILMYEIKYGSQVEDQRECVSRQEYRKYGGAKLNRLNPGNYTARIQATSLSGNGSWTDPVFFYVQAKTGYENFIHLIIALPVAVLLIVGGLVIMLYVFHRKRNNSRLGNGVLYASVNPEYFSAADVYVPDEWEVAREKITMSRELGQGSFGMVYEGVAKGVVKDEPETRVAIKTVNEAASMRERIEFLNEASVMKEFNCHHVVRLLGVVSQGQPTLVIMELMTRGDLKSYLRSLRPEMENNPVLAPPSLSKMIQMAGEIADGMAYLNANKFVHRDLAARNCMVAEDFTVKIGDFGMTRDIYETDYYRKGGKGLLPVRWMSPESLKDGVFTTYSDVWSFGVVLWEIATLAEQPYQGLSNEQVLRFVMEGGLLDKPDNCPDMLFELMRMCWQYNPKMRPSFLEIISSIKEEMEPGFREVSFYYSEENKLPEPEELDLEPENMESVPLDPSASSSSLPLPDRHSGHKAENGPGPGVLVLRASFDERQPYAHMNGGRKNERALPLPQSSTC
structure (smiles),measurement,setting,value
CCN1CCN(Cc2ccc(Nc3ncc(F)c(-c4cc(F)c5nc(C)n(C(C)C)c5c4)n3)nc2)CC1 [ABEMACICLIB],inhibition,TAK1/TAB1 (Homo sapiens),57.1%
same,inhibition,[1],24.2%
same,inhibition,[2],14%
same,inhibition,[3],19.5%
same,inhibition,[4],9.5%
same,inhibition,[5],21.5%
same,inhibition,[6],9.3%
same,inhibition,[7],-2%
same,inhibition,[8],2.4%
same,inhibition,[9],15%
same,inhibition,[10],4.7%
same,inhibition,[11],30.8%
same,inhibition,[12],24.8%
same,inhibition,[13],3%
same,inhibition,[14],8%
same,inhibition,[15],35.5%
same,inhibition,[16],8%
same,inhibition,[17],8.7%
same,inhibition,[18],6.5%
same,inhibition,[19],97.7%
same,inhibition,[20],2%
same,inhibition,[21],0.5%
same,inhibition,[22],42.5%
CCN1CC2(C1)CN(c1ccc(Nc3ncc(F)c(-c4cnn5c4[C@H](C)CCCC5)n3)nc1)C2,inhibition,TAK1/TAB1 (Homo sapiens),87.5%
same,inhibition,[1],75%
same,inhibition,[2],7%
same,inhibition,[3],58.5%
same,inhibition,[4],20.5%
same,inhibition,[5],67.5%
same,inhibition,[6],10.5%
same,inhibition,[7],-0.5%
same,inhibition,[8],5%
same,inhibition,[9],11.5%
same,inhibition,[10],20.5%
same,inhibition,[11],19.5%
same,inhibition,[12],10.5%
same,inhibition,[13],2.5%
same,inhibition,[14],6%
same,inhibition,[15],59%
same,inhibition,[16],3.5%
same,inhibition,[17],0%
same,inhibition,[18],2%
same,inhibition,[19],95%
same,inhibition,[20],3%
same,inhibition,[21],6%
same,inhibition,[22],3.5%
